# Measured values reported in patent publication US11365217B2, “Peptides for treating telomere dysfunction-associated diseases and uses thereof” (priority 2018, dated 2022).
# Entries after “also recorded” stand apart in the source; their conditions may differ. Non-standard residues stand in square brackets, D forms with d. No end group written: not given here.
# Experiments:
# [1] = test system: Human cervical carcinoma cells Hela; assay: Telomere DNA damage in Hela cells under X-ray irradiation, detected by FISH; assay type: cell-based; settings: peptide 4 h; for telomere DNA damage caused by irradiation of X rays: 5-Gy X ray for 1 h
# Protocol: Human cervical carcinoma cells Hela were respectively treated with various peptides (as shown in SEQ ID NOs:1-26 in Table 1) for 4 h, and then the cells treated with the same peptide were divided into two groups, which were respectively subjected to 0-Gy and 5-Gy irradiation of X ray for 1 h and detected for telomere DNA damage using fluorescence in situ hybridization (FISH).
# [2] = test system: bleomycin-induced pulmonary fibrosis in mice; assay: YK21 in bleomycin-induced pulmonary fibrosis in mice (intratracheal perfusion); assay type: in vivo
# Protocol: The time program of this experiment was shown in FIG. 1E, specifically, 4 hours later, the mice were all intratracheally perfused with bleomycin (3 mg per kilogram of body weight), and 20 hours after the perfusion of bleomycin, two groups of mice were respectively received a second perfusion of YK21 and a second perfusion of YK21h. After 21 days of the first perfusion of peptide, the mice were all subjected to endotracheal intubation for the detection of respiratory function, and the lung tissue RNA was extracted and subjected to real-time quantitative PCR to detect the mRNA expression of TPP1 and SPC. The lung tissues were embedded with paraffin, sectioned, subjected to Masson and H&E staining and detected by immunofluorescence assay for the expression of α-SMA. Moreover, 10 mg of lung tissues were employed for the determination of hydroxyproline content; and the telomere length of alveolar epithelial type II stem cells (SPC+telomere probe) and the telomere DNA damage in lung tissues (53BP1+telomere probe) were detected by FISH.
# [3] = test system: mice under X-ray irradiation; assay: DYK21 applied to dorsal skin of mice with or without X-ray irradiation (skin aging, weight loss, premature death)
# Source text: 48 2-4 month old wild mice were equally divided into four groups, and the hair in a 2 cm×2 cm region on the back of each of the mice was removed. […] The mice were photographed and weighed every day, and sacrificed on the 8th day to collect the skin tissues.
# [4] = test system: carbon tetrachloride-induced liver fibrosis in C57BL/6 mice; assay: DST8 in carbon tetrachloride-induced liver fibrosis in mice; assay type: in vivo; settings: 1 mg/kg intraperitoneal weekly, 4 weeks, Masson staining and Western Blot, control GE8
# Protocol: 12 6 week old wild female C57BL/6 mice were equally divided into four groups, where two groups of mice were intraperitoneally injected with a solution of 10% carbon tetrachloride in olive oil three times a week (on every Monday, Wednesday and Friday, 5 μL per gram of body weight), and the other two groups of mice were intraperitoneally injected with an equal amount of olive oil as control. The two groups injected with carbon tetrachloride were intraperitoneally injected with DST8 (SerArgAsnGlyThrGluGluThr, in D-amino acids), 1 mg per kilogram of body weight) and GE8 (SEQ ID NO:24), respectively, 4 hours before the first injection of carbon tetrachloride in each week. The two control groups were also intraperitoneally injected with DST8 (1 mg per kilogram of body weight) and GE8, respectively, 4 hours before the first injection of olive oil in each week. After 4 consecutive weeks of administration, the liver was isolated, embedded with paraffin, sectioned and subjected to Masson staining and Western Blot analysis.
# [5] = test system: bleomycin-induced pulmonary fibrosis in mice; assay: ST8 in bleomycin-induced pulmonary fibrosis in mice (intratracheal perfusion); assay type: in vivo
# Protocol: 4 hours later, the mice were all intratracheally perfused with bleomycin (3 mg per kilogram of body weight), and 21 days after the perfusion of peptide, the mice were subjected to endotracheal intubation for the detection of respiratory function. The type II cells were sorted by flow cytometry and calculated for the proportion. The lung tissue RNA was extracted and subjected to real-time quantitative PCR for the detection of mRNA expression of NG2, […], s100a4, α-SMA and Col6a, and the lung proteins were also extracted and detected by Western Blot for the expression of FBW7, TPP1, α-SMA and internal reference GAPDH. The lung tissues were embedded with paraffin, sectioned, subjected to Masson and H&E staining and detected by immunofluorescence assay for the expression of α-SMA. Moreover, 10 mg of lung tissues were employed for the determination of hydroxyproline content; and the telomere length of type II cells (SPC+telomere probe) was detected by FISH.
# [6] = test system: mice with overexpression of FBW7 in lung tissues; assay: ST8 in mice intratracheally perfused with FBW7-lentivirus (overexpression of FBW7 in lung); assay type: in vivo; settings: control GE8
# Protocol: 4 hours later, the two groups of mice perfused with ST8 were respectively intratracheally perfused with a control- or FBW7-lentivirus, and the two groups of mice perfused with GE8 were also respectively intratracheally perfused with the control- or FBW7-lentiviruses. The perfusion was performed every other 4 days in a total number of 4. On the fourth day after the fourth perfusion, the mice were subjected to endotracheal intubation for the detection of respiratory function. The type II cells were sorted by flow cytometry and calculated for the proportion. The lung tissue RNA was extracted and subjected to real-time quantitative PCR for the detection of mRNA expression of α-SMA, Col6a, and MMP3, and the lung proteins were also extracted and detected by Western Blot for the expression of FBW7, TPP1, SPC, α-SMA and internal reference GAPDH. The lung tissues were embedded with paraffin, sectioned, subjected to Masson and H&E staining and detected by immunofluorescence assay for the expression of α-SMA. Moreover, the proportion of lung type II epithelial cells (SPC positive cells) was obtained by immunofluorescence assay; and the telomere length of type II cells (SPC+telomere probe) was detected by FISH.
# [7] = lung tissue mRNA, real-time quantitative PCR, bleomycin mice, vs YK21h
# [8] = dorsal skin application 7 days, 4-Gy X-ray daily, compared to DCTL1
substance,measurement,setting,value
KTEETGNRSGRRRQRRKKRGY [DKY21],telomere DNA damage caused by irradiation of X rays,[1],inhibitory effect
YGRKKRRERRRGSRNGTEETK,telomere DNA damage at a basic level,[1]; 0-Gy,significantly reduce
same,telomere DNA damage caused by irradiation of X rays,[1],completely inhibit
same,respiratory function in mice,"[2]; 1 mg/kg intratracheal, bleomycin 3 mg/kg, day 21, compared to control peptide YK21h",improve the lung respiratory function; also recorded: significantly improve
same,pulmonary fibrosis induced by bleomycin,"[2]; 1 mg/kg intratracheal, bleomycin 3 mg/kg, day 21, hydroxyproline, Masson, H&E, α-SMA, vs YK21h",prevent the lung aging damage and pulmonary fibrosis; also recorded: inhibit
same,telomere length of type II epithelial cells,"[2]; FISH (SPC+telomere probe), bleomycin mice, vs YK21h",extend telomere length; also recorded: increase
same,number of lung stem cells,[2]; intratracheal administration to mice in one time,increase the number of lung stem cells
same,expression of SPC,[2]; [7],increase
same,expression of TPP1,[2]; [7],increase
TyrGlyArgLysLysArgArgGluArgArgArgGlySerArgAsnGlyThrGluGluThrLys [DYK21] ([dY]G[dR][dK][dK][dR][dR][dE][dR][dR][dR]G[dS][dR][dN]G[dT][dE][dE][dT][dK]),telomere DNA damage caused by irradiation of X rays,[1],inhibitory effect
same,skin damage and fibrous tissue proliferation (skin fibrosis) caused by X-ray irradiation,"[3]; H&E and Masson staining, 4-Gy X-ray daily for 7 days, vs DCTL1",completely free of skin fibrosis; also recorded: significant inhibitory effect
same,number of dermal stem cells,[3]; application to the dorsal skin of mice,significant increase
same,number of hair follicles,"[3]; application to the dorsal skin of mice, irradiation not mentioned",significant increase
same,acute death caused by X-ray irradiation,[3]; compared to DCTL1,alleviated the acute death to some extent
same,life span under X-ray irradiation,[3]; compared to DCTL1,prolonged the life of some mice
same,weight loss caused by X-ray irradiation,[3]; compared to DCTL1,inhibited the weight loss
same,body weight,[3]; [8],larger in body weight
same,number of hair follicles,[3]; [8],more hair follicles
same,fibrosis area,"[3]; skin, X-ray irradiation, vs DCTL1",smaller fibrosis area
SRNGTEET [DST8],liver fibrosis caused by carbon tetrachloride,[4],prevent the liver fibrosis; also recorded: significantly inhibit
SRNGTEET [ST8],telomere DNA damage caused by irradiation of X rays,[1],significantly inhibiting
same,respiratory dysfunction in mice caused by bleomycin,"[5]; 1 mg/kg intratracheal, bleomycin 3 mg/kg, day 21, control GE8",alleviate
same,telomere length of type II cells,"[5]; FISH, bleomycin mice, control GE8",extend the telomere
same,bleomycin-induced pulmonary fibrosis in mice,"[5]; Masson, H&E, α-SMA, fibrosis marker mRNA, control GE8",inhibitory effect
same,FBW7 expression in lung,"[5]; Western Blot, bleomycin mice, control GE8",inhibit FBW7
same,proportion of lung type II epithelial cells,"[5]; flow cytometry, bleomycin mice, control GE8",improved
same,respiratory dysfunction caused by the overexpression of FBW7,"[6]; 1 mg/kg intratracheal, FBW7-lentivirus perfused 4 times",significant role in alleviating
same,decrease in the proportion of type II epithelial cells caused by the overexpression of FBW7,[6]; FBW7-lentivirus mice,significant role in alleviating
same,pulmonary fibrosis caused by the overexpression of FBW7,[6]; FBW7-lentivirus mice,significant role in alleviating
same,reduction in the expression of TPP1 caused by the overexpression of FBW7,[6]; FBW7-lentivirus mice,significant role in alleviating
same,telomere shortening caused by the overexpression of FBW7,"[6]; FISH, FBW7-lentivirus mice",significant role in alleviating
